Results on one compound are retold here after patent US20240336748A1, “A METHOD FOR PREPARING HYALURONIC ACID GRAFTED POLY(N-ISOPROPYLACRYLAMIDE) (HA-G-PNI-PAM)” (NABSOLUTE COMPANY LIMITED, priority 2021, published 2024).

In this data set the test system is fibroblast L929 cell. In words: Side effect test, toxic reduction of asiatic acid, PrestoBlue assay. It is filed as cell-based. The conditions noted are these: 12.5 μM asiatic acid dissolved in DMSO in cell culture media.

Description: Side effect test of Sample 2 in colloid form at concentration of 0, 0.1, 0.15 and 0.25% w/v form was studied by considering the toxic reduction of asiatic acid in fibroblast L929 cell via PrestoBlue™ assay.

Compound `C[C@H]1[C@H](C)CC[C@]2(C(=O)O)CC[C@]3(C)C(=CC[C@@H]4[C@@]5(C)C[C@@H](O)[C@H](O)[C@@](C)(CO)[C@@H]5CC[C@]43C)[C@H]12` [asiatic acid] displayed a Cell viability of 5%.
